The text below walks through data of patent publication US20240238425A1, “HSD17B13 Inhibitors and/or Degraders” (Pfizer Inc., priority 2022, published 2024).

In this test the test system is HiBiT-HSD17β13 fusion protein (N-terminal HiBiT-tagged HSD17β13 isoform D) in Huh7 HiBiT-HSD17β13 OE cells. Description: Whole-cell Huh7-HSD17B13 HiBiT assay (degrader potency and maximal efficacy, luminescence readout). The conditions noted are these: 24 hour incubation, geometric mean, * = geometric mean for all forms tested (parent and salt forms); for DC50: read-out: Huh7_HIBIT-HSD17β13_DC50 GMean DC50; for Huh7_HIBIT-HSD17β13_DC50 GMean Asymptote Maximum: max. concentration 1 μM. Format: cell-based, human. In short, it runs like this:
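Luminescence from lytic HiBiT detection tracked residual HiBiT-HSD17β13 (isoform D, N-terminal tag) in a stable Huh7 overexpressing clone after 24 h compound treatment at 37° C, 11 concentrations up to 1 μM final. Percent effect used DMSO (zero) and parental Huh7 (high) wells; four-parameter fit gave 50% degradation; viability checked by CellTiter-Glo.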

Where a name gives a salt, the structure may show the parent alone.

What is called DC50 is the concentration at which degradation of the target reaches its halfway point.

As for `O=C1CCN(c2cnc3cc(CN4CCN(c5ncc(-c6ccc7cn([C@H]8CC[C@H](CNC(=O)c9cc(F)c(O)c(F)c9F)CC8)nc7c6)cn5)CC4)ccn23)C(=O)N1` [Example 50, N-{[(1r,4r)-4-{6-[2-(4-{[3-(2,4-dioxo-1,3-diazinan-1-yl)imidazo[1,2-a]pyridin-7-yl]methyl}piperazin-1-yl)pyrimidin-5-yl]-2H-indazol-2-yl}cyclohexyl]methyl}-2,3,5-trifluoro-4-hydroxybenzamide, trifluoroacetate salt], the half-maximal degradation concentration (DC50) was found to be 0.91 nM and the “Huh7_HIBIT-HSD17β13_DC50 GMean Asymptote Maximum” value is listed as 85%.
On the same counts, the results for `O=C1CCN(c2cnn3cc(CCCN4CCN(c5ncc(-c6ccc7cn([C@H]8CC[C@H](CNC(=O)c9cc(F)c(O)c(F)c9F)CC8)nc7c6)cn5)CC4)ccc23)C(=O)N1` [Example 53, N-{[(1r,4r)-4-{6-[2-(4-{3-[3-(2,4-dioxo-1,3-diazinan-1-yl)pyrazolo[1,5-a]pyridin-6-yl]propyl}piperazin-1-yl)pyrimidin-5-yl]-2H-indazol-2-yl}cyclohexyl]methyl}-2,3,5-trifluoro-4-hydroxybenzamide, trifluoroacetate salt] are 0.78 nM and 77%.
On the same counts, the results for `O=C1CCN(c2cnn3cc(CCN4CCN(c5ncc(-c6ccc7cn([C@H]8CC[C@H](CNC(=O)c9cc(F)c(O)c(F)c9F)CC8)nc7c6)cn5)CC4)ccc23)C(=O)N1` [Example 54, N-{[(1r,4r)-4-{6-[2-(4-{2-[3-(2,4-dioxo-1,3-diazinan-1-yl)pyrazolo[1,5-a]pyridin-6-yl]ethyl}piperazin-1-yl)pyrimidin-5-yl]-2H-indazol-2-yl}cyclohexyl]methyl}-2,3,5-trifluoro-4-hydroxybenzamide, trifluoroacetate salt] are 0.64 nM and 83%.
Take `Cc1ccc(C(=O)N2CCC(OC3CCN(c4ncc(-c5ccc6cn([C@H]7CC[C@H](CNC(=O)c8cc(F)c(O)c(F)c8F)CC7)nc6c5)cn4)CC3)CC2)cc1N1CCC(=O)NC1=O` [Example 57, N-{[(1r,4r)-4-(6-{2-[4-({1-[3-(2,4-dioxo-1,3-diazinan-1-yl)-4-methylbenzoyl]piperidin-4-yl}oxy)piperidin-1-yl]pyrimidin-5-yl}-2H-indazol-2-yl)cyclohexyl]methyl}-2,3,5-trifluoro-4-hydroxybenzamide, trifluoroacetate salt]: the DC50 turned out to be 4.8 nM and the “Huh7_HIBIT-HSD17β13_DC50 GMean Asymptote Maximum” value came out at 76%.
On the same counts, the results for `Cc1ccc(C(=O)N2CCC3(CCN(c4ncc(-c5ccc6cn([C@H]7CC[C@H](CNC(=O)c8cc(F)c(O)c(F)c8F)CC7)nc6c5)cn4)CC3)C2)cc1N1CCC(=O)NC1=O` [Example 58, N-({(1r,4r)-4-[6-(2-{2-[3-(2,4-dioxo-1,3-diazinan-1-yl)-4-methylbenzoyl]-2,8-diazaspiro[4.5]decan-8-yl}pyrimidin-5-yl)-2H-indazol-2-yl]cyclohexyl}methyl)-2,3,5-trifluoro-4-hydroxybenzamide, trifluoroacetate salt] are 1.5 nM and 73%.
As for `Cc1ccc(C(=O)N2CCN(C3COC4(CCN(c5ncc(-c6ccc7cn([C@H]8CC[C@H](CNC(=O)c9cc(F)c(O)c(F)c9F)CC8)nc7c6)cn5)CC4)C3)CC2)cc1N1CCC(=O)NC1=O` (stereo partly drawn) [Example 59, N-{[(1r,4r)-4-{6-[2-(3-{4-[3-(2,4-dioxo-1,3-diazinan-1-yl)-4-methylbenzoyl]piperazin-1-yl}-1-oxa-8-azaspiro[4.5]decan-8-yl)pyrimidin-5-yl]-2H-indazol-2-yl}cyclohexyl]methyl}-2,3,5-trifluoro-4-hydroxybenzamide, trifluoroacetate salt], the half-maximal degradation concentration (DC50) worked out at 1 nM and the “Huh7_HIBIT-HSD17β13_DC50 GMean Asymptote Maximum” value stood at 80%.
On the same counts, the results for `O=C1CCN(c2cnn3cc(CCCN4CCN(c5nccc(-c6nc([C@]78CC[C@](CNC(=O)c9cc(F)c(O)c(F)c9F)(CC7)CC8)no6)n5)CC4)ccc23)C(=O)N1` [Example 61, N-[(4-{5-[2-(4-{3-[3-(2,4-dioxo-1,3-diazinan-1-yl)pyrazolo[1,5-a]pyridin-6-yl]propyl}piperazin-1-yl)pyrimidin-4-yl]-1,2,4-oxadiazol-3-yl}bicyclo[2.2.2]octan-1-yl)methyl]-2,3,5-trifluoro-4-hydroxybenzamide, trifluoroacetate salt] are 2.6 nM and 72%.
In the case of `Cc1ccc(C(=O)N2CCC3(CC2)CCN(c2ncc(-c4ccc5cn([C@H]6CC[C@H](CNC(=O)c7cc(F)c(O)c(F)c7F)CC6)nc5c4)cn2)C3)cc1N1CCC(=O)NC1=O` [Example 63, N-({(1r,4r)-4-[6-(2-{8-[3-(2,4-dioxo-1,3-diazinan-1-yl)-4-methylbenzoyl]-2,8-diazaspiro[4.5]decan-2-yl}pyrimidin-5-yl)-2H-indazol-2-yl]cyclohexyl}methyl)-2,3,5-trifluoro-4-hydroxybenzamide], the DC50 stood at 2.6 nM and the “Huh7_HIBIT-HSD17β13_DC50 GMean Asymptote Maximum” value is 80%.
On the same counts, the results for `Cc1ccc(C(=O)N2CCC3(CC2)C[C@@H](N2CCN(c4ncc(-c5ccc6cn([C@H]7CC[C@H](CNC(=O)c8cc(F)c(O)c(F)c8F)CC7)nc6c5)cn4)CC2)CO3)cc1N1CCC(=O)NC1=O` [Example 68, N-{[(1r,4r)-4-{6-[2-(4-{(3R)-8-[3-(2,4-dioxo-1,3-diazinan-1-yl)-4-methylbenzoyl]-1-oxa-8-azaspiro[4.5]decan-3-yl}piperazin-1-yl)pyrimidin-5-yl]-2H-indazol-2-yl}cyclohexyl]methyl}-2,3,5-trifluoro-4-hydroxybenzamide, trifluoroacetate salt] are 1.7 nM and 79%.
In the case of `O=C1CCN(c2cnn3cc(CN4CCN(c5cnc(-c6ccc7cn([C@H]8CC[C@H](CNC(=O)c9cc(F)c(O)c(F)c9F)CC8)nc7c6)cn5)CC4)ccc23)C(=O)N1` [Example 70, N-{[(1r,4r)-4-{6-[5-(4-{[3-(2,4-dioxo-1,3-diazinan-1-yl)pyrazolo[1,5-a]pyridin-6-yl]methyl}piperazin-1-yl)pyrazin-2-yl]-2H-indazol-2-yl}cyclohexyl]methyl}-2,3,5-trifluoro-4-hydroxybenzamide, trifluoroacetate salt], the DC50 was found to be 1.1 nM and the “Huh7_HIBIT-HSD17β13_DC50 GMean Asymptote Maximum” value is 85%.
With `Cc1ccc(C(=O)N2CCC3(CC2)CC(N2CCN(c4cnc(-c5ccc6cn([C@H]7CC[C@H](CNC(=O)c8cc(F)c(O)c(F)c8F)CC7)nc6c5)cn4)CC2)CO3)cc1N1CCC(=O)NC1=O` (stereo partly drawn) [Example 71, N-{[(1r,4r)-4-{6-[5-(4-{8-[3-(2,4-dioxo-1,3-diazinan-1-yl)-4-methylbenzoyl]-1-oxa-8-azaspiro[4.5]decan-3-yl}piperazin-1-yl)pyrazin-2-yl]-2H-indazol-2-yl}cyclohexyl]methyl}-2,3,5-trifluoro-4-hydroxybenzamide, trifluoroacetate salt], the DC50 stood at 2.4 nM and the “Huh7_HIBIT-HSD17β13_DC50 GMean Asymptote Maximum” value is given as 76%.
For `Cc1ccc(C(=O)N2CCC3(CC2)CC(N2CCN(c4cnc(-c5ccc6cn([C@H]7CC[C@H](CNC(=O)c8cc(F)c(O)c(F)c8F)CC7)nc6c5)cn4)CC2)C3)cc1N1CCC(=O)NC1=O` [Example 72, N-{[(1r,4r)-4-{6-[5-(4-{7-[3-(2,4-dioxo-1,3-diazinan-1-yl)-4-methylbenzoyl]-7-azaspiro[3.5]nonan-2-yl}piperazin-1-yl)pyrazin-2-yl]-2H-indazol-2-yl}cyclohexyl]methyl}-2,3,5-trifluoro-4-hydroxybenzamide, trifluoroacetate salt], the 50% degradation concentration (DC50) is 1.6 nM and the “Huh7_HIBIT-HSD17β13_DC50 GMean Asymptote Maximum” value worked out at 78%.
In the same order, the values of `Cc1ccc(C(=O)N2CCC3(CC2)C[C@H](N2CCN(c4ncc(-c5ccc6cn([C@H]7CC[C@H](CNC(=O)c8cc(F)c(O)c(F)c8F)CC7)nc6c5)cn4)CC2)CO3)cc1N1CCC(=O)NC1=O` [Example 73, N-{[(1r,4r)-4-{6-[2-(4-{(3S)-8-[3-(2,4-dioxo-1,3-diazinan-1-yl)-4-methylbenzoyl]-1-oxa-8-azaspiro[4.5]decan-3-yl}piperazin-1-yl)pyrimidin-5-yl]-2H-indazol-2-yl}cyclohexyl]methyl}-2,3,5-trifluoro-4-hydroxybenzamide, trifluoroacetate salt] are 0.96 nM and 76%.
On the same counts, the results for `Cc1ccc(C(=O)N2CCC3(CC2)CC(N2CCN(c4ccc5cn([C@H]6CC[C@H](CNC(=O)c7cc(F)c(O)c(F)c7F)CC6)nc5c4)CC2)C3)cc1N1CCC(=O)NC1=O` [Example 82, N-({(1r,4r)-4-[6-(4-{7-[3-(2,4-dioxo-1,3-diazinan-1-yl)-4-methylbenzoyl]-7-azaspiro[3.5]nonan-2-yl}piperazin-1-yl)-2H-indazol-2-yl]cyclohexyl}methyl)-2,3,5-trifluoro-4-hydroxybenzamide, trifluoroacetate salt] are 2 nM and 74%.
On the same counts, the results for `O=C1CCN(c2cc(C(=O)N3CCC(CN4CCN(c5ncc(-c6ccc7cn([C@H]8CC[C@H](CNC(=O)c9cc(F)c(O)c(F)c9F)CC8)nc7c6)cn5)CC4)CC3)ccc2Cl)C(=O)N1` [Example 89, N-{[(1r,4r)-4-(6-{2-[4-({1-[4-chloro-3-(2,4-dioxo-1,3-diazinan-1-yl)benzoyl]piperidin-4-yl}methyl)piperazin-1-yl]pyrimidin-5-yl}-2H-indazol-2-yl)cyclohexyl]methyl}-2,3,5-trifluoro-4-hydroxybenzamide, formate salt] are 3 nM and 77%.
